# Where two headings read alike, the source gives them in different places.
# Tests used:
# [1] = Whole plasma pharmacokinetics of benznidazole in mice (HPLC); type: in vivo, mouse; conditions: for i.p. bioavailability (from AUC0-∞): 65 mg kg-1 i.p.; for half-life / Tmax: mouse; for Tmax: read-out: time of peak plasma concentration (converted)
# Text: (§1) Br. J. Cancer (1984), 50, 291-303 Preclinical pharmacokinetics of benznidazole P. Workman', R.A.S. White2, M.I. Walton', L.N. Owen2* & P.R. Twentyman' 1MRC Clinical Oncology and Radiotherapeutics Unit, MRC Centre, Hills Road, Cambridge CB2 2QH, and 2Department of Clinical Veterinary Medicine, University of Cambridge, Madingley Road, Cambridge CB3 OES, UK. […] We have investigated the detailed pharmacokinetics of benznidazole in mice, dogs and sheep to provide a data base for the estimation of doses required for chemosensitization in man. Pharmacokinetic behaviour was linear except at high doses in mice. Absorption was fairly rapid and bioavailability was complete following both i.p. administration in mice and oral administration in dogs. Elimination t4 values were longer than for MISO, being 90 min in mice, 4-5 h in sheep and 9-11 h in dogs. At doses giving linear kinetics, peak whole plasma concentrations per administered mgkg-1 were 0.75 jigml-1 for the i.p. route in mice and 1.8jugmlP' for the oral route in dogs. Though between 39 and 59% of plasma benznidazole was bound to protein, tissue penetration was generally good. Tissue/whole plasma ratios ranged from 59-99% for transplantable mouse tumours and from 14-70% for spontaneous dog neoplasms. Nervous tissue penetration was similar to that in tumours: brain/whole plasma ratios averaged between 61 and 76% in mice and 42% in dogs, while peripheral nerve/whole plasma ratios in dogs averaged 74%. Mean liver/whole plasma ratios were 42% and 71% in BALB/c and C3H/He mouse strains respectively. Only -5% of the administered dose was excreted unchanged in the urine, indicating the likelihood of extensive metabolism. […] Enhancement of CCNU response is likely to require circulating benznidazole concentrations of 10-30 pgml-1 and we predict that these will be obtained with oral doses of 6-20 mgkg- 1 in man. […] This enhancement, or chemosensitization, is usually greater than that seen in dose-limiting normal tissues, resulting in an improved therapeutic index. Because of the relatively high doses of MISO usually required for chemosensitization in mice (see above refs), and also because of its neurotoxicity in man (Dische et al., 1977), we have been interested in finding an improved chemosensitizer. […] The lipophilic ana- logue benznidazole (N-benzyl-(2-nitroimidazolyl) acetamide, Ro 07-1051; Radanil; Roche), the structure of which is shown in Figure 1, was selected for detailed study because of its ability to *Present address: Animal Health Trust, Small Animals Centre, Lanwades Park, Kennett, Newmarket, Suffolk CB8 7PN, UK. Correspondence: P. Workman. […] These findings have been confirmed independently by Siemann et al. (1983). Although benznidazole is used quite widely in South America to treat patients with the trypanosomal infection Chagas' disease or with mucotaneous Leishmaniasis (Barclay et al., 1978; Cerisola et al., 1978; Coura et al., 1978; Fava et al., 1978), apart from our preliminary studies (White et al., 1982) the only published data on its pharmaco- kinetics are for human plasma concentrations measured by polarography (Raaflub & Ziegler, 1979; Raaflub, 1980). Here we describe the pharmacokinetics of benznidazole in the mouse, sheep and dog, as determined by high-performance liquid chromatography (HPLC). […] The Macmillan Press Ltd., 1984 292 P. WORKMAN et al. particularly on plasma and tumour concentrations, have been used as a basis for the estimation of the benznidazole doses required in a Phase I trial of benznidazole plus CCNU, at present ongoing in our Unit. Materials and methods Animals and tumours Adult inbred male BALB/c mice were obtained from OLAC (Southern) Ltd. (Bicester, UK) and adult inbred C3H/He mice of both sexes from OLAC and our own breeding colony. Mice were housed in plastic cages on sawdust bedding made from soft white woods, and allowed laboratory chow and water ad lib. They were used at 20-35 g body wt.
# [2] = test system: plasma proteins; experiment: Binding to plasma proteins in vitro, mouse plasma (ultrafiltrate); type: in vitro ADME
# Text: Br. J. Cancer (1984), 50, 291-303 Preclinical pharmacokinetics of benznidazole P. Workman', R.A.S. White2, M.I. Walton', L.N. Owen2* & P.R. Twentyman' 1MRC Clinical Oncology and Radiotherapeutics Unit, MRC Centre, Hills Road, Cambridge CB2 2QH, and 2Department of Clinical Veterinary Medicine, University of Cambridge, Madingley Road, Cambridge CB3 OES, UK. […] We have investigated the detailed pharmacokinetics of benznidazole in mice, dogs and sheep to provide a data base for the estimation of doses required for chemosensitization in man. Pharmacokinetic behaviour was linear except at high doses in mice. Absorption was fairly rapid and bioavailability was complete following both i.p. administration in mice and oral administration in dogs. Elimination t4 values were longer than for MISO, being 90 min in mice, 4-5 h in sheep and 9-11 h in dogs. At doses giving linear kinetics, peak whole plasma concentrations per administered mgkg-1 were 0.75 jigml-1 for the i.p. route in mice and 1.8jugmlP' for the oral route in dogs. Though between 39 and 59% of plasma benznidazole was bound to protein, tissue penetration was generally good. Tissue/whole plasma ratios ranged from 59-99% for transplantable mouse tumours and from 14-70% for spontaneous dog neoplasms. Nervous tissue penetration was similar to that in tumours: brain/whole plasma ratios averaged between 61 and 76% in mice and 42% in dogs, while peripheral nerve/whole plasma ratios in dogs averaged 74%. […] Although benznidazole is used quite widely in South America to treat patients with the trypanosomal infection Chagas' disease or with mucotaneous Leishmaniasis (Barclay et al., 1978; Cerisola et al., 1978; Coura et al., 1978; Fava et al., 1978), apart from our preliminary studies (White et al., 1982) the only published data on its pharmaco- kinetics are for human plasma concentrations measured by polarography (Raaflub & Ziegler, 1979; Raaflub, 1980). Here we describe the pharmacokinetics of benznidazole in the mouse, sheep and dog, as determined by high-performance liquid chromatography (HPLC). […]
# [3] = Penetration into EMT6 and KHT mouse tumours; type: in vivo; conditions: for tumour/whole plasma ratio (s.e., n=5): EMT6 flank, experiment b, 650 mg kg-1 i.p.
# Text: as §1
# [4] = EMT6 flank tumour, BALB/c, 45 min after 650 mg kg-1 i.p.
compound,measurement,setting,value
"O=C(Cn1ccnc1[N+](=O)[O-])NCc1ccccc1 [benznidazole, N-benzyl-(2-nitroimidazolyl) acetamide]",peak whole plasma concentration (+2 s.e.),"[1]; BALB/c mice, 26 mg kg-1 i.p.",18.0+3.7 µg ml-1
same,i.p. bioavailability (from AUC0-∞),"[1]; BALB/c mice, 50% polyethylene glycol/saline vehicle",87%
same,i.p. bioavailability (from AUC0-∞),"[1]; BALB/c mice, dimethyl sulphoxide vehicle",113%
same,peak whole plasma concentration (+2 s.e.),"[1]; BALB/c mice, 78 mg kg-1 i.p.",36.0+2.5 µg ml-1
same,peak whole plasma concentration (+2 s.e.),"[1]; BALB/c mice, 650 mg kg-1 i.p.",105+15 µg ml-1
same,"blood/whole plasma concentration ratio, overall mean (s.e., n=16)","[1]; BALB/c mice, 650 mg kg-1 i.p. in arachis oil, 45-135 min",116+4%
same,whole plasma concentration remaining at 24 h,"[1]; BALB/c mice, 650 mg kg-1 i.p., experiment of Figure 3",15 µg/mL
same,half-life,"[1]; male, plasma, ip, BALB/c mice, 26 mg kg-1 i.p., suspension in 50% polyethylene glycol, read-out: elimination half-life (95% confidence limits)",1.55 h
same,half-life,"[1]; male, plasma, ip, BALB/c mice, 68 mg kg-1 (so in the source) i.p., suspension in 50% polyethylene glycol, read-out: elimination half-life (95% confidence limits)",1.6 h
same,Tmax,"[1]; male, plasma, ip, BALB/c mice, 650 mg kg-1 i.p.",1 h
same,Tmax,"[1]; male, plasma, ip, BALB/c mice, 26 and 78 mg kg-1 i.p.",0.25 to 0.5 h
same,half-life,"[1]; male, plasma, iv, BALB/c mice, 32.5 mg kg-1 i.v. in dimethyl sulphoxide, read-out: elimination half-life (95% confidence limits)",1.98 h
same,half-life,"[1]; male, plasma, iv, BALB/c mice, 65 mg kg-1 i.v. in dimethyl sulphoxide, read-out: elimination half-life (95% confidence limits)",1.95 h
same,peak whole plasma concentration that would be produced,"[1]; mice, 13 mg kg-1 i.p.",about 10 µg ml-1
same,"whole plasma concentration (dose-peak concentration curve, Figure 4)","[1]; mice, 26 mg kg-1 i.p.",20 µg/mL
same,whole plasma concentration,"[1]; mice, 78 mg kg-1 i.p., discussion summary",30 µg/mL
same,"whole plasma concentration (dose-peak concentration curve, Figure 4)","[1]; mice, 650 mg kg-1 i.p.",90 µg/mL
same,whole plasma concentration remaining at 24 h,"[1]; mice, 650 mg kg-1 i.p., some other experiments (undetectable)",< 0.2 µg/mL
same,peak whole plasma concentration per administered mg kg-1,"[1]; mice, i.p. route, doses giving linear kinetics",0.75 micrograms ml-1
same,half-life,"[1]; plasma, mice, summary value, read-out: elimination t1/2",1.5 h
same,metabolites detectable by HPLC with u.v. detection at 313 nm,"[1]; plasma, urine and tissues of all species studied",no evidence of metabolites
same,extent of binding to plasma proteins in vitro,[2]; BALB/c mice,38%
same,extent of binding to plasma proteins in vitro,[2]; C3H/He mice,39%
same,binding to plasma proteins,"[2]; mouse, discussion summary",39%
same,concentration in tumour homogenate (Figure 2 chromatogram),[3]; [4],13500 ng/mL
same,tumour concentration (Figure 2 chromatogram),[3]; [4],54 µg/g
same,"tumour/whole plasma ratio (s.e., n=5)",[3]; 45 min,58+8%
same,"tumour/whole plasma ratio (s.e., n=5)",[3]; 75 min,70 + 5%
same,"tumour/whole plasma ratio (s.e., n=5)",[3]; 105 min,97 + 4%
same,"tumour/whole plasma ratio (s.e., n=5)",[3]; 135 min,88 + 9%
same,tumour/whole plasma ratio (% ± s.e.),"[3]; EMT6 i.d. flank, BALB/c, Exp 2 (b): 650 mg kg-1 i.p., 45-135 min, n=20",79 + 5%
same,"peak tumour level (s.e., n=4)","[3]; EMT6 i.d. flank, first experiment, 650 mg kg-1 i.p. in arachis oil",55+11 µg g-1

# From PMC1976805, “Preclinical pharmacokinetics of benznidazole” (British Journal of Cancer, 1984)
